Molecular target: T1, human PTH1 receptor (Homo sapiens, UniProt Q03431)
T1 sequence (Q03431 27-593): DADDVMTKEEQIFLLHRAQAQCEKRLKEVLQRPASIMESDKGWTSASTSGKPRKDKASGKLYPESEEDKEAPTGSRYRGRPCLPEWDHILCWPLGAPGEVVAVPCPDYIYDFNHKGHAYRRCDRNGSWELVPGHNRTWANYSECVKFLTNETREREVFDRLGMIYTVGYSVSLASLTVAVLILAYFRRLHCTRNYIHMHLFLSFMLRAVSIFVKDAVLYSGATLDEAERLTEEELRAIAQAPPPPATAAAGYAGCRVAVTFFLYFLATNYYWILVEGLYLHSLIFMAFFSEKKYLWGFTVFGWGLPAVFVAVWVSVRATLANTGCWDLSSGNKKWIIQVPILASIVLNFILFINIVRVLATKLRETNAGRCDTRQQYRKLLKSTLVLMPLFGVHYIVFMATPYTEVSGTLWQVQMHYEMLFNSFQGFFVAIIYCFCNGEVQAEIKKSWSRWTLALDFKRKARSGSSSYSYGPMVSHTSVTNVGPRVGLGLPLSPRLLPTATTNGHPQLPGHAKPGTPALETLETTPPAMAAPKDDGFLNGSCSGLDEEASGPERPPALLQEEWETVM
Experiment: In vitro cAMP signal activity in HKRK-B7 cells (LLC-PK1 cells overexpressing the human PTH1 receptor)
Format: cell-based
Conditions: HKRK-B7 cells; compound at 1×10^−3 M; cAMP produced as percentage of that produced by hPTH(1-34) at 100 nM

SMILES | cAMP production activity (%)
Cc1cc(N(C)C(N)=O)cc(C)c1/C=C/S(=O)(=O)N1CCC2(CC1)N=C(C1CCC(CCC(F)(F)F)CC1)NC2=O (stereo not drawn) [Compound 723, 1-[3,5-Dimethyl-4-((E)-2-{4-oxo-2-[4-(3,3,3-trifluoro-propyl)-cyclohexyl]-1,3,8-triaza-spiro[4.5]dec-1-ene-8-sulfonyl}-vinyl)-phenyl]-1-methyl-urea] | 95%
CC(=O)Nc1ccc(CCS(=O)(=O)N2CCC3(CC2)N=C(C24CC5CC(CC(C5)C2)C4)NC3=O)c(C)c1 [Compound 918, N-{4-[2-(2-adamantan-1-yl-4-oxo-1,3,8-triaza-spiro[4.5]dec-1-ene-8-sulfonyl)-ethyl]-3-methyl-phenyl}-acetamide] | 63%
CCCc1cccc(-c2cccc(C3=NC4(CCN(S(=O)(=O)CCc5c(C)cc(N(C)C(N)=O)cc5C)CC4)C(=O)N3)c2)c1 [Compound 1136, 1-(3,5-Dimethyl-4-{2-[4-oxo-2-(3′-propyl-biphenyl-3-yl)-1,3,8-triaza-spiro[4.5]dec-1-ene-8-sulfonyl]-ethyl}-phenyl)-1-methyl-urea] | 112%
Cc1cc(N(C)C(N)=O)cc(C)c1CCS(=O)(=O)N1CCC2(CC1)N=C(c1cccc(OC(F)(F)F)c1)NC2=O [Compound 935, 1-(3,5-dimethyl-4-{2-[4-oxo-2-(3-trifluoromethoxy-phenyl)-1,3,8-triaza-spiro[4.5]dec-1-ene-8-sulfonyl]-ethyl}-phenyl)-1-methyl-urea] | 112%
CC(=O)Nc1ccc(CCS(=O)(=O)N2CCC3(CC2)N=C(C2CCCCC2)NC3=O)cc1 [Compound 167, N-{4-[2-(2-Cyclohexyl-4-oxo-1,3,8-triaza-spiro[4.5]dec-1-ene-8-sulfonyl)-ethyl]-phenyl}-acetamide] | 44%
CCCc1ccc(-c2cccc(C3=NC4(CCN(S(=O)(=O)CCc5c(C)cc(N(C)C(N)=O)cc5C)CC4)C(=O)N3)c2)cc1 [Compound 1152, 1-(3,5-Dimethyl-4-{2-[4-oxo-2-(4′-propyl-biphenyl-3-yl)-1,3,8-triaza-spiro[4.5]dec-1-ene-8-sulfonyl]-ethyl}-phenyl)-1-methyl-urea] | 0.8%
Cc1cc(C(=O)N(C)C)ccc1CCS(=O)(=O)N1CCC2(CC1)N=C(c1ccc(C(F)(F)F)cc1C(F)(F)F)NC2=O [Compound 100, 4-{2-[2-(2,4-bis-trifluoromethyl-phenyl)-4-oxo-1,3,8-triaza-spiro[4.5]dec-1-ene-8-sulfonyl]-ethyl}-3,N,N-trimethyl-benzamide] | 61%
Cc1cc(C(=O)N2CCC(O)(CO)CC2)cc(C)c1CCS(=O)(=O)N1CCC2(CC1)N=C(c1cccc(OC(F)(F)F)c1)NC2=O [Compound 831, 8-{2-[4-(4-hydroxy-4-hydroxymethyl-piperidine-1-carbonyl)-2,6-dimethyl-phenyl]-ethanesulfonyl}-2-(3-trifluoromethoxy-phenyl)-1,3,8-triaza-spiro[4.5]dec-1-en-4-one] | 4.7%
Cc1cc(C(=O)NN)cc(C)c1/C=C/S(=O)(=O)N1CCC2(CC1)N=C(C1CCC(CCC(F)(F)F)CC1)NC2=O (stereo not drawn) [Compound 996, 3,5-Dimethyl-4-((E)-2-{4-oxo-2-[4-(3,3,3-trifluoro-propyl)-cyclohexyl]-1,3,8-triaza-spiro[4.5]dec-1-ene-8-sulfonyl}-vinyl)-benzoic acid hydrazide] | 85%
Cc1cc(C(=O)N(C)C)ccc1CCS(=O)(=O)N1CCC2(CC1)N=C(C1CCC(C)CC1)NC2=O (stereo not drawn) [Compound 76, 3,N,N-trimethyl-4-{2-[2-(4-methyl-cyclohexyl)-4-oxo-1,3,8-triaza-spiro[4.5]dec-1-ene-8-sulfonyl]-ethyl}-benzamide] | 73%
Cc1cc(C(=O)N(C)C)cc(C)c1CCS(=O)(=O)N1CCC2(CC1)N=C(C1CCC(C)CC1)NC2=O (stereo not drawn) [Compound 1379, 3,5,N,N-tetramethyl-4-{2-[2-(4-methyl-cyclohexyl)-4-oxo-1,3,8-triaza-spiro[4.5]dec-1-ene-8-sulfonyl]-ethyl}-benzamide] | 86%
Cc1cc(C(=O)N2CCC(C)(O)CC2)cc(C)c1/C=C/S(=O)(=O)N1CCC2(CC1)N=C(c1ccc(OCCCC(F)(F)C(F)(F)F)c(C(F)(F)F)c1)NC2=O [Compound 1202, 8-{(E)-2-[4-(4-hydroxy-4-methyl-piperidine-1-carbonyl)-2,6-dimethyl-phenyl]-ethenesulfonyl}-2-[4-(4,4,5,5,5-pentafluoro-pentyloxy)-3-trifluoromethyl-phenyl]-1,3,8-triaza-spiro[4.5]dec-1-en-4-one] | 91%
Cc1cc2ccc1CCS(=O)(=O)N1CCC3(CC1)N=C(NC3=O)c1cc(cc(C(F)(F)F)c1)OCC/C=C/CCCCCN(C)C2=O [Compound 1413] | 57%
Cc1cc(N(C)C(N)=O)cc(C)c1/C=C/S(=O)(=O)N1CCC2(CC1)N=C(CCCCCCCCCCCO)NC2=O [Compound 1307, 1-(4-{(E)-2-[2-(11-hydroxy-undecyl)-4-oxo-1,3,8-triaza-spiro[4.5]dec-1-ene-8-sulfonyl]-vinyl}-3,5-dimethyl-phenyl)-1-methyl-urea] | 116%
Cc1cc(C(=O)N2CC(O)C2)ccc1CCS(=O)(=O)N1CCC2(CC1)N=C(c1cccc(C(F)(F)F)c1)NC2=O [Compound 377, 8-{2-[4-(3-hydroxy-azetidine-1-carbonyl)-2-methyl-phenyl]-ethanesulfonyl}-2-(3-trifluoromethyl-phenyl)-1,3,8-triaza-spiro[4.5]dec-1-en-4-one] | 64%
Cc1cc(C(=O)N2CCC(O)(CF)CC2)cc(C)c1CCS(=O)(=O)N1CCC2(CC1)N=C(c1ccc(C(F)(F)F)c(OCC(F)(F)C(F)F)c1)NC2=O [Compound 1279, 8-{2-[4-(4-fluoromethyl-4-hydroxy-piperidine-1-carbonyl)-2,6-dimethyl-phenyl]-ethanesulfonyl}-2-[3-(2,2,3,3-tetrafluoro-propoxy)-4-trifluoromethyl-phenyl]-1,3,8-triaza-spiro[4.5]dec-1-en-4-one] | 113%
CC(=O)Nc1ccc(CCS(=O)(=O)N2CCC3(CC2)N=C(Nc2ccc(C(F)(F)F)cc2)NC3=O)c(C)c1 [Compound 1401, N-(3-Methyl-4-{2-[4-oxo-2-(4-trifluoromethyl-phenylamino)-1,3,8-triaza-spiro[4.5]dec-1-ene-8-sulfonyl]-ethyl}-phenyl)-acetamide] | 73%
Cc1cc(C(=O)N(C)C)ccc1CCS(=O)(=O)N1CCC2(CC1)N=C(c1cccc(COCC(F)(F)C(F)F)c1)NC2=O [Compound 170, 3,N,N-trimethyl-4-(2-{4-oxo-2-[3-(2,2,3,3-tetrafluoro-propoxymethyl)-phenyl]-1,3,8-triaza-spiro[4.5]dec-1-ene-8-sulfonyl}-ethyl)-benzamide] | 77%
Cc1cc(C(=O)N2CC(F)(F)C(F)(F)C2)ccc1CCS(=O)(=O)N1CCC2(CC1)N=C(C1CCCCC1)NC2=O [Compound 283, 2-cyclohexyl-8-{2-[2-methyl-4-(3,3,4,4-tetrafluoro-pyrrolidine-1-carbonyl)-phenyl]-ethanesulfonyl}-1,3,8-triaza-spiro[4.5]dec-1-en-4-one] | 63%
Cc1cc(C(=O)N(C)C)ccc1CCS(=O)(=O)N1CCC2(CC1)N=C(c1cccc(COCC(F)F)c1)NC2=O [Compound 169, 4-(2-{2-[3-(2,2-difluoro-ethoxymethyl)-phenyl]-4-oxo-1,3,8-triaza-spiro[4.5]dec-1-ene-8-sulfonyl}-ethyl)-3,N,N-trimethyl-benzamide] | 71%
Cc1cc(CNC(=O)OC(C)(C)C)ccc1CCS(=O)(=O)N1CCC2(CC1)N=C(C1CCC(F)(F)CC1)NC2=O [Compound 163, (4-{2-[2-(4,4-difluoro-cyclohexyl)-4-oxo-1,3,8-triaza-spiro[4.5]dec-1-ene-8-sulfonyl]-ethyl}-3-methyl-benzyl)-carbamic acid tert-butyl ester] | 41%
Cc1cc(C(=O)N(C)C)ccc1CCS(=O)(=O)N1CCC2(CC1)N=C(CCC1CCCCC1)NC2=O [Compound 108, 4-{2-[2-(2-cyclohexyl-ethyl)-4-oxo-1,3,8-triaza-spiro[4.5]dec-1-ene-8-sulfonyl]-ethyl}-3,N,N-trimethyl-benzamide] | 62%
Cc1cc(N2C(=O)CC[C@@H]2CNC(C)C)cc(C)c1/C=C/S(=O)(=O)N1CCC2(CC1)N=C(c1cccc(OC(F)(F)F)c1)NC2=O [Compound 606, 8-((E)-2-{4-[(R)-2-(isopropylamino-methyl)-5-oxo-pyrrolidin-1-yl]-2,6-dimethyl-phenyl}-ethenesulfonyl)-2-(3-trifluoromethoxy-phenyl)-1,3,8-triaza-spiro[4.5]dec-1-en-4-one] | 28%

Same assay, conditions: HKRK-B7 cells; compound at 1×10^−3 M; cAMP produced as percentage of that produced by hPTH(1-34) at 100 nM; 0.1 µM

SMILES | cAMP production activity (%)
C#C[C@H]1CC[C@@H](C2=NC3(CCN(S(=O)(=O)CCc4ccc(NC(C)=O)cc4C)CC3)C(=O)N2)CC1 [Compound 1370, N-(4-{2-[2-(4-Ethynyl-cyclohexyl)-4-oxo-1,3,8-triaza-spiro[4.5]dec-1-ene-8-sulfonyl]-ethyl}-3-methyl-phenyl)-acetamide] | 64%

— patent US9169254B2, “Spiroimidazolone derivative” (Chugai Seiyaku Kabushiki Kaisha, priority 2009, dated 2015)
